# Laboratory results: EP2392568A1, “Heterocyclic amino acids for prostate cancer imaging” (priority 2010, dated 2011)
# Legend:
# [1] = test system: DU145 prostate cancer cells; assay: Cell-uptake experiment: uptake of [14C] ACPC in the presence of excess heterocyclic amino acid; type: cell-based; conditions: 5 µM 14C-ACPC, 60 minutes at 37°C, uptake buffer PBS with 0.1% BSA, Figure 10
# Description: To assess the difference between heterocyclic amino acids and other non-natural amino acids, we studied the uptake of the cyclic amino acid [14C] ACPC into DU145 prostate cancer cells in the presence of excess amount of an heterocyclic amino acid (compound 15). 25000 DU145 cells were seeded per cavity of a 48 well incubation plate (Becton Dickinson; Cat. 353078) and incubated for 2 days in D-MEM / F-12 (1:1) with GlutaMAx (Invitrogen; Cat. 31331) medium supplemented with 10% FCS in an incubator (37°C, 5%CO2).
# DU145 xenografts = assay: PET/CT-imaging in DU145-tumor bearing mice; type: in vivo; conditions: microPET/CT; for renal clearance / background activity: 50-70min after injection; for tumor-contrast: 50-70min after injection of - 10 MBq radiotracer; for background activity: except for kidney and bladder uptake
# Description: Example 9 was imaged on a microPET/ CT (Inveon, Siemens) in DU145 tumor-bearing mice 50-70min after injection of - 10 MBq radiotracer 45.
# Example 10 was imaged on a microPET/ CT (Inveon, Siemens) in DU145 tumor-bearing mice 50-70min after injection of - 10 MBq radiotracer 46.
# [2] = test system: primary prostate cancer tumors; conditions: prostate cancer patients, cited from earlier work; for uptake into primary prostate cancer tumors: Schuster et al., abstract at SNM 2010
# [3] = McConathy and Goodman, Cancer Metastasis Rev. 2008; cited from earlier work
Compound,renal clearance (DU145 xenografts),tumor-contrast (DU145 xenografts),background activity (DU145 xenografts),uptake into primary prostate cancer tumors [2],background in other organs [2],renal elimination / excretion into the bladder [2],other results
"N[C@]1(C(=O)O)COC[C@H]1F (racemic) [compound 15, (3SR,4SR)-3-Amino-4-fluorotetrahydrofuran-3-carboxylic acid]",,,,,,,[14C] ACPC uptake into DU145 prostate cancer cells in the presence of excess amount of heterocyclic amino acid [1]: able to block [14C] ACPC uptake
"NC1(C(=O)O)COCC1[18F] (racemic) [tracer 45, (3SR,4SR)-3-Amino-4-[^18F]fluorotetrahydrofuran-3-carboxylic acid]",rapid renal clearance,High tumor-contrast,very low background activity,,,,
"N[C@@]1(C(=O)O)CCOC[C@@H]1[18F] (racemic) [tracer 46, (3RS,4RS)-4-Amino-3-[^18F]fluoro-3,4,5,6-tetrahydro-2H-pyran-4-carboxylic acid]",rapid renal clearance,High tumor-contrast,very low background activity,,,,
NC1(C(=O)O)CCCC1[18F] (centres unmarked) [2-FACPC],,,,showed uptake into primary prostate cancer tumors,high background signals for instance in the blood pool,excreted into the bladder more rapidly,
"N[C@]1(C(=O)O)C[C@@H](F)C1 [3-FACBC, anti-1-amino-3-[18F]fluorocyclobutyl-1-carboxylic acid]",,,,showed uptake into primary prostate cancer tumors,high background in other organs such as liver and heart,delayed renal elimination,
"NC1([11C](=O)O)CCC1 [[11C]ACBC, 1-aminocyclobutane-1-[11C]carboxylic acid]",,,,,,,metabolism [3]: not metabolized
